Here are results for 32 compounds from US20050075371A1, “Methods and compositions for the oral administration of prodrugs of proton pump inhibitors” (ALLERGAN, INC., priority 2003, published 2005).

Series [1] can be described thus: Systemic half-life after oral or intravenous administration in dogs. Type of series: in vivo, dogs (beagle). The following applies: for Dog T1/2 PPI / Dog T1/2 Prodrug / half-life: oral solution, unit inferred; for Dog T1/2 PPI / half-life: systemic half-life of the proton pump inhibitor; for Dog T1/2 Prodrug: half-life of intact prodrug, NC = plasma concentration of prodrug too low to calculate half-life, or undetected; for t1/2 (systemic half-life in dogs after oral administration): Table 2D; for half-life: beagle, dog, blood, po, read-out: Dog T1/2 PPI (converted). How it is done: (§1) Blood concentrations of the compounds omeprazole, lansoprazole, pantoprazole, rabeprazole, and test compounds were quantified using an achiral liquid chromatography tandem mass spectrometry method (LC-MS/MS). Systemic pharmacokinetic parameters were determined for omeprazole or lansoprazole using non-compartmental analysis in Watson® version 6.3, available from InnaPhase Corporation, Philadelphia, Pa.

A further series has as its system Caco-2 cells. Put plainly: Membrane permeability (Papp) across Caco-2 cell monolayer, apical to basolateral. Type of series: in vitro ADME. The following applies: Caco-2, apical to basolateral, 10 μM, 37° C. How it is done:
Determination of membrane permeability in all examples described herein was accomplished by the following procedure. This procedure is also used to determine whether a given prodrug falls within the scope of those claims given herein which relate to membrane permeability.
Caco-2 cells were seeded on Costar™ 12 mm diameter, 0.4 μm pore size transwell filters, and were cultured at 37° C., 5% CO2 in a humidified tissue culture chamber.
DMEM was equilibrated as a transport buffer in 37° C. water bath an hour before experiment. The cells were then equilibrated in transport buffer for 1 hr at 37° C.
Dosing solution (10 μM) was prepared by adding a 20 μL aliquot of a 10 mM stock solution of the prodrug to 20 mL of transport buffer.
Transport across Caco-2 cell monolayer was measured at 37° C., in the apical to basolateral direction (n=3).
Transport buffer was removed from both apical and basolateral compartment of filters. Dosing solution (0.2 mL) was added to the apical compartment of the cell layers on transwell filters, and 0.8 ml fresh pre-warmed transport buffer was added to basolateral compartment. Timing was started for transport, and at 5, 20, and 60 min after transport started, sample fluid (400 μL) was collected from the basolateral compartment. Fresh transport buffer (400 μL) was added back to the basolateral compartment, and the fluid was thoroughly mixed.
Transport samples, dosing solution, and standards(100 μL) each were mixed with 100 μl of a 500 ng/ml internal standard (Lansoprazole-D) for LC-MS/MS analysis, and part of each sample (100 μL) was vortexed and transferred into glass LC-MS/MS vials for analysis.
The apparent permeability coefficient (Papp, cm/sec), otherwise known herein as the membrane permeability, is determined from the following relationship: Papp=J/(ACo) where J (pmol/min) is the transport rate, meaning the rate of prodrug movement through the cell layer, A (cm^2) is the filter surface area, and Co (μM) is the initial dosing concentration.
The transport rate J, is calculated as the slope of the linear regression fit for the transport amount over time data using Microsoft Excel® 97 SR-2 (Microsoft Corp. Redmond, Wash.).
Lucifer yellow (LY) was used as a paracellular permeability reference standard to determine integrity of cell layers used in the experiments. LY transport in the apical to basolateral direction was carried out in the same manner as described above. Fluorescence level in basolateral fluid sampled at 5, 20, and 60 min post dose was determined using Fluostar Galaxy (BMG Labtechnologies, Durham, N.C.) at excitation/emission wavelengths of 485/520 nm. A standard curve covering the range from 0.002 to 0.5 mg/mL is constructed to quantify the amount of LY in the transport sample to calculate permeability coefficient (Papp).

The nature of series [2]: Systemic half-life after oral or intravenous administration in rats. In kind it is in vivo, rats (Sprague-Dawley). The conditions noted are these: rats, oral solution; for Rat T1/2 Prodrug: half-life of intact prodrug, NC = plasma concentration of prodrug too low to calculate half-life, or undetected. Here is the method: as §1
Setting [3] is: systemic half-life of the proton pump inhibitor, unit inferred.

The compound `COC(=O)COc1ccc(S(=O)(=O)n2c([S+]([O-])Cc3ncc(C)c(OC)c3C)nc3cc(OC)ccc32)cc1` (stereo not drawn) [Compound 20] came in with a Dog T1/2 PPI in series [1] of 162 min.
Regarding `COc1ccc2c(c1)nc([S+]([O-])Cc1ncc(C)c(OC)c1C)n2S(=O)(=O)c1c(C)cc(OCC(=O)O)cc1C` (stereo not drawn) [Compound 2], in series [1], the Dog T1/2 Prodrug was 6.78 min, the Dog T1/2 PPI turned out to be 96.6 min and the “t1/2 (systemic half-life in dogs after oral administration)” value was 96 min. The Permeability with Caco-2 cells turned out to be 0.054 ×10⁻⁶ cm/s.
As to `COCCCOc1ccnc(C[S+]([O-])c2nc3ccccc3[nH]2)c1C` (stereo not drawn) [Rabeprazole, reference compound], the half-life in series [1] was 22.1 min.
In series [1], `Cc1c(OCC(F)(F)F)ccnc1C[S+]([O-])c1nc2ccccc2n1S(=O)(=O)c1ccc(C(=O)O)c(OCC(=O)O)c1` (stereo not drawn) [Compound 16] returned a Dog T1/2 PPI of 60 min. The Rat T1/2 PPI in series [2] (setting [3]) stood at 112 min.
Take `COc1ccc(C(=O)O)cc1S(=O)(=O)n1c([S+]([O-])Cc2nccc(OCC(F)(F)F)c2C)nc2ccccc21` (stereo not drawn) [Compound 14]: in series [1], the Dog T1/2 Prodrug was 7.08 min and the Dog T1/2 PPI stood at 83.4 min. Also, the Rat T1/2 PPI in series [2] (setting [3]) is 32.2 min.
Turning to `Cc1c(OCC(F)(F)F)ccnc1C[S+]([O-])c1nc2ccccc2n1S(=O)(=O)c1ccc(C(=O)O)cc1` (stereo not drawn) [Compound 18], in series [1], the Dog T1/2 Prodrug was 5.39 min and the Dog T1/2 PPI is 54.5 min.
The corresponding values for `Cc1ccc(S(=O)(=O)n2c([S+]([O-])Cc3nccc(OCC(F)(F)F)c3C)nc3ccccc32)cc1CCC(=O)O` (stereo not drawn) [Compound 19] are 110 min and 29 min.
The corresponding values for `COCCCOc1ccnc(C[S+]([O-])c2nc3ccccc3n2S(=O)(=O)c2ccc(C(=O)O)cc2)c1C` (stereo not drawn) [Compound 33] are 44.8 min and 53.6 min.
In the case of `Cc1c(OCC(F)(F)F)ccnc1C[S+]([O-])c1nc2ccccc2n1S(=O)(=O)c1ccc(CC(=O)O)c(CC(=O)O)c1` (stereo not drawn) [Compound 12], the Dog T1/2 PPI in series [1] worked out at 55.9 min.
`COc1ccnc(C[S+]([O-])c2nc3cc(OC(F)F)ccc3n2S(=O)(=O)c2ccc(OCC(=O)O)cc2)c1OC` (stereo not drawn) [Compound 28] returned a Dog T1/2 PPI in series [1] of 157 min. The compound also had a Rat T1/2 PPI in series [2] (setting [3]) of 87 min.
`COc1ccc2c(c1)nc([S+]([O-])Cc1ncc(C)c(OC)c1C)n2S(=O)(=O)c1ccc(OCC(=O)O)c(C(=O)O)c1` (stereo not drawn) [Compound 23] yielded a Dog T1/2 PPI in series [1] of 73.2 min. The compound also showed a Rat T1/2 PPI in series [2] (setting [3]) of 163 min.
In the case of `COCCCOc1ccnc(C[S+]([O-])c2nc3ccccc3n2S(=O)(=O)c2cccc(C(=O)O)c2)c1C` (stereo not drawn) [Compound 30], in series [1], the Dog T1/2 Prodrug is 67.2 min and the Dog T1/2 PPI was 29.5 min.
Consider `Cc1c(OCC(F)(F)F)ccnc1C[S+]([O-])c1nc2ccccc2n1S(=O)(=O)c1ccc(OCC(=O)O)c(OCC(=O)O)c1` (stereo not drawn) [Compound 35], for which, in series [2] (setting [3]), the Rat T1/2 PPI worked out at 110 min.
In series [1], `COc1ccc2c(c1)nc([S+]([O-])Cc1ncc(C)c(OC)c1C)n2S(=O)(=O)c1ccc(C(=O)O)c(C(=O)O)c1` (stereo not drawn) [Compound 22] returned a Dog T1/2 PPI of 233 min.
In the case of `Cc1c(OCC(F)(F)F)ccnc1C[S+]([O-])c1nc2ccccc2n1S(=O)(=O)c1ccc(CC(=O)O)cc1` (stereo not drawn) [Compound 9], in series [1], the Dog T1/2 PPI worked out at 53.6 min and the “t1/2 (systemic half-life in dogs after oral administration)” value was determined as 53.4 min. The compound also displayed a Permeability in the series with Caco-2 cells of 0.34 ×10⁻⁶ cm/s. The Rat T1/2 PPI in series [2] (setting [3]) was determined as 20.5 min.
Regarding `COc1ccc2c(c1)nc([S+]([O-])Cc1ncc(C)c(OC)c1C)n2S(=O)(=O)c1cc(C(=O)O)ccc1C` (stereo not drawn) [Compound 27], in series [1], the Dog T1/2 Prodrug is 7.02 min and the Dog T1/2 PPI worked out at 66 min. The compound also showed a Rat T1/2 PPI in series [2] (setting [3]) of 130 min.
Take `COc1ccc2c(c1)nc([S+]([O-])Cc1ncc(C)c(OC)c1C)n2S(=O)(=O)c1ccc(CC(=O)O)cc1` (stereo not drawn) [Compound 5]: in series [1], the Dog T1/2 Prodrug was 16.1 min, the Dog T1/2 PPI was found to be 61.8 min and the “t1/2 (systemic half-life in dogs after oral administration)” value amounted to 60 min. Also, the Permeability in the series on Caco-2 cells was 0.17 ×10⁻⁶ cm/s. The Rat T1/2 PPI in series [2] (setting [3]) turned out to be 102 min.
`Cc1cc(OCC(=O)O)cc(C(C)C)c1S(=O)(=O)n1c([S+]([O-])Cc2nccc(OCC(F)(F)F)c2C)nc2ccccc21` (stereo not drawn) [Compound 17]: in series [1], the Dog T1/2 Prodrug was 89.4 min and the Dog T1/2 PPI was found to be 67.8 min.
Consider `Cc1c(OCC(F)(F)F)ccnc1C[S+]([O-])c1nc2ccccc2n1S(=O)(=O)c1cccc(C(=O)O)c1` (stereo not drawn) [Compound 7], for which, in series [1], the Dog T1/2 Prodrug is 12.4 min, the Dog T1/2 PPI came to 53.6 min and the “t1/2 (systemic half-life in dogs after oral administration)” value was found to be 53.4 min. In the series with Caco-2 cells, this compound had a Permeability of 0.16 ×10⁻⁶ cm/s. Moreover, the Rat T1/2 PPI in series [2] (setting [3]) is 116 min.
In series [2] (setting [3]), `Cc1cc(C(=O)O)ccc1S(=O)(=O)n1c([S+]([O-])Cc2nccc(OCC(F)(F)F)c2C)nc2ccccc21` (stereo not drawn) [Compound 37] yielded a Rat T1/2 PPI of 131 min.
The same measure, in the same setting: in the case of `Cc1c(OCC(F)(F)F)ccnc1C[S+]([O-])c1nc2ccccc2n1S(=O)(=O)c1ccc(C(=O)O)cc1` (stereo not drawn) [Compound 36] it was 23.3 min.
On to `COc1ccnc(C[S+]([O-])c2nc3cc(OC(F)F)ccc3n2S(=O)(=O)c2cc(C(=O)O)ccc2C)c1OC` (stereo not drawn) [Compound 29], for which the Dog T1/2 PPI in series [1] stood at 57.5 min. This compound also came in with a Rat T1/2 PPI in series [2] (setting [3]) of 60.6 min.
Take `COc1ccc2c(c1)nc([S+]([O-])Cc1ncc(C)c(OC)c1C)n2S(=O)(=O)c1c(C)cc(OCC(C)(C)C(=O)O)cc1C` (stereo not drawn) [Compound 4]: in series [1], the Dog T1/2 Prodrug is 75.6 min, the Dog T1/2 PPI worked out at 50.2 min and the “t1/2 (systemic half-life in dogs after oral administration)” value came to 50.4 min. In addition, the Permeability in the series on Caco-2 cells came out at 0.52 ×10⁻⁶ cm/s. Moreover, the Rat T1/2 Prodrug in series [2] (unit inferred) was 20.5 min. In series [2] (setting [3]), this compound gave a Rat T1/2 PPI of 42.5 min.
As for `COc1ccc2c(c1)nc([S+]([O-])Cc1ncc(C)c(OC)c1C)n2S(=O)(=O)c1ccc(OCC(=O)O)c(OCC(=O)O)c1` (stereo not drawn) [Compound 24], the Dog T1/2 PPI in series [1] turned out to be 82.2 min. This compound yielded a Rat T1/2 PPI in series [2] (setting [3]) of 23 min.
Turning to `COc1ccc(S(=O)(=O)n2c([S+]([O-])Cc3nccc(OCC(F)(F)F)c3C)nc3ccccc32)cc1CCC(=O)O` (stereo not drawn) [Compound 38], the “Rat T1/2 Prodrug” value in series [2] (unit not given) is given as 1.04 (0.35). The compound also registered a Rat T1/2 PPI in series [2] (setting [3]) of 85.8 min.
As for `COCCCOc1ccnc(C[S+]([O-])c2nc3ccccc3n2S(=O)(=O)c2cc(C(=O)O)ccc2C)c1C` (stereo not drawn) [Compound 31], in series [1], the Dog T1/2 Prodrug is 50.6 min and the Dog T1/2 PPI was 51.3 min.
`COc1ccnc(C[S+]([O-])c2nc3ccc(OC(F)F)cc3[nH]2)c1OC` (stereo not drawn) [Pantoprazole, reference compound]: the half-life in series [1] is 44.6 min; in series [2] (Sprague-Dawley, rat, blood, systemic half-life of the proton pump inhibitor, unit inferred, read-out: Rat T1/2 PPI (converted)) it was 41.8 min.
Turning to `Cc1c(OCC(F)(F)F)ccnc1C[S+]([O-])c1nc2ccccc2n1S(=O)(=O)c1ccc(OCC(C)(C)C(=O)O)cc1` (stereo not drawn) [Compound 11], in series [1], the Dog T1/2 PPI came to 52.4 min. Also, the Rat T1/2 PPI in series [2] (setting [3]) is 56 min.
On to `Cc1c(OCC(F)(F)F)ccnc1C[S+]([O-])c1nc2ccccc2n1S(=O)(=O)c1ccc(OCC(=O)O)cc1` (stereo not drawn) [Compound 10], for which the Dog T1/2 PPI in series [1] stood at 59.3 min.
Take `COCCCOc1ccnc(C[S+]([O-])c2nc3ccccc3n2S(=O)(=O)c2c(C)cc(OCC(=O)O)cc2C)c1C` (stereo not drawn) [Compound 32]: in series [1], the Dog T1/2 Prodrug is 31.6 min and the Dog T1/2 PPI amounted to 91.2 min.
On to `Cc1cc(OCC(=O)O)cc(C)c1S(=O)(=O)n1c([S+]([O-])Cc2nccc(OCC(F)(F)F)c2C)nc2ccccc21` (stereo not drawn) [Compound 34], for which, in series [2] (setting [3]), the Rat T1/2 PPI worked out at 66.6 min.
`Cc1ccc(C(=O)O)cc1S(=O)(=O)n1c([S+]([O-])Cc2nccc(OCC(F)(F)F)c2C)nc2ccccc21` (stereo not drawn) [Compound 13]: in series [1], the Dog T1/2 Prodrug was 7.32 min and the Dog T1/2 PPI was determined as 106 min. This compound gave a Rat T1/2 PPI in series [2] (setting [3]) of 141 min.
